Measurements: patent US20250302961A1, “TARGETING MYELOID-DERIVED SUPPRESSOR CELLS (MDSCS) IN BLADDER CANCER TO ENHANCE EFFICACY OF ADOPTIVE CELL THERAPY (ACT)” (H. LEE MOFFITT CANCER CENTER AND RESEARCH INSTITUTE, INC., priority 2022, published 2025)

Test system: MB49-OVA bladder tumors
Test: Gemcitabine pretreatment and ACT with OT-I T-cells in orthotopic MB49-OVA bladder cancer model, tumor growth by ultrasound
Type: in vivo, C57BL/6 mice
Settings: intravesical 500 ug gemcitabine for 30 minutes, then 5×10^6 OT-I T-cells at day 4 (GEM+OT-I)
Experimental: For murine studies, orthotopic MB49-OVA bladder tumors were collected, stained for MDSCs, and analyzed by flow cytometry. Urine samples from bladder cancer patients were also collected and stained for MDSCs. From mice, purified MDSCs and OT-I T-cells were cocultured and from bladder cancer patients, purified urine MDSCs and CD3-stimulated peripheral blood T-cells were cocultured to assess suppression of T-cell proliferation or IFN-gamma secretion. Mice bearing MB49-OVA tumors were treated with intravesical instillation of gemcitabine and/or OT-I T-cells and tumor growth was monitored via ultrasound. C57BL/6 female mice were initially anesthetized and catheterized (Terumo), then pre-treated orthotopically with Poly-L-Lysine in PBS (50 uL at 1μg/mL) for 10 minutes. Then bladders were washed with 50 uL PBS and mice received intravesical instillation of 1×10^5 MB49-OVA murine bladder cancer cells for 30 minutes. Presence of bladder tumors were confirmed via the Vevo 2100 ultrasound system (FUJIFILM VisualSonics Inc.) 10 days after tumor inoculation and ultrasound was performed 1X per week until mice were euthanized. To evaluate whether targeting MDSCs with gemcitabine (GEM) improves transfer of T cells, C57BL/6 mice received intravesical instillation of MB49-OVA tumor cells and were monitored via ultrasound. Seven-ten days after intravesical instillation of tumor, mice were separated into three treatment groups and an untreated (UNTX) group. The gemcitabine group (GEM) and the combination gemcitabine and OT-I treatment group (GEM+OT-I) received intravesical instillation of 500 ug gemcitabine for 30 minutes. The OT-I treatment group (OT-I) and GEM+OT-I treatment groups received intravesical instillation of 5×10^6 OT-I T-cells for 3 hours at day 4 after instillation of Gem. Tumor growth was measured via ultrasound.

For `Nc1ccn([C@@H]2O[C@H](CO)[C@@H](O)C2(F)F)c(=O)n1` [gemcitabine], the “anti-tumor response (tumor growth via ultrasound)” value (from here on “anti-tumor response”) (mice bearing large MB49-OVA tumors (>50 mm3)) was “improved anti-tumor response”, the “anti-tumor response” value (mice bearing large MB49-OVA tumors (>50 mm3), listed as Gemcitabine) was “improves adoptive cell therapy (ACT)” and the “anti-tumor response” value (mice bearing smaller MB49-OVA tumors (<50 mm3)) was “little added benefit to ACT”.
